Measured values published in US6121244A, “Antitumoral method by administration of partricin derivatives” (Prospa B.V., priority 1997, dated 2000).
“Also recorded” adds a separate entry of the source. Read-outs that look alike come from different tables or passages of the source.

What was measured:
[1] = test system: murine WEHI-3B (D+) myelomonocytic leukemia cells; test: Cytotoxicity by MTT microtiter test; type: cell-based; conditions: for dose dependence of toxic effect: linear regression
Method: A) Microtiter test (MTT) (Pessina et al. "In vitro short-term and long-term cytotoxicity of fluoroquinones on murine cell line", Ind. J.
The cultures were incubated for 7 days at 37° C. in air+5% CO2 and finally 20 μl of MTT at a conc. of 5 mg/ml in PBS were added to each well. After 3-h incubation at 37° C. the cultures were destroyed with 100 μl of a lytic buffer prepared with sodium dodecylsulfate/dimethylforma-mide/acetic acid/HCl. After further overnight incubation, the optical density (OD) at 620 nm was determined with a microplate LP200 detector. The O.D. of the wells with no cells was considered as 0% proliferation. The O.D. of the wells with growing cells in drug-free medium was considered as 100% proliferation.

[2] = test system: murine WEHI-3B (D+) myelomonocytic leukemia cells; conditions: clonogenic test; amphotericin B vs SPA-S-843; FIG. 4
Method: Substances: SPA-S-843 and amphotericin B were dissolved in sterile bidistilled water to a concentration of 2000 μg/ml. The working solutions were prepared in McCoy medium supplemented with penicillin+streptomycin (100 U/ml +100 μg/ml) at the concentrations of from 200 μg/ml to 1.56 μg/ml by subsequent serial 1:2 dilutions.
The murine WEHI-3B (D+) myelomonocytic leukemia cells were maintained through subcultures in 25-cm^2 plastic bottles in McCoy medium (Seromed, Germany) containing 5% FCS (Gibco, USA).
Cell sensitivity to the toxic action of SPA-S-843 in comparison with that of amphotericin B, taken as reference substance, was determined by two different methods:
Acta, 1013, 206-11, 1989).
The clonogenic capacity of WEHI-3B(D+) cells was tested by culturing 300 cells in 0.3 ml of complete enriched medium [McCoy +10% FCS, 10 mM sodium pyruvate, 4% NEAA (10×), 4% Mem Vit (100×)]+0.3% agar in 35 mm Petri plates.
SPA-S-843 and amphotericin B (100 μl) had previously been added to the Petri plates at serial concentrations of from 25 to 0.19 μg/ml. The control plates contained 100 μl of culture medium. The colonies were counted after 7 days of incubation at 37° C. in an atmosphere of air+5% CO2.

erythrocytes = conditions: cited from earlier work; for total hemolytic conc. (THC): erythrocytes
[3] = mice, i.v.; cited from earlier work
[4] = test system: thyroid medullary carcinoma (TMC) cells; test: Cytotoxicity test (MTT) of cisplatin after pre-treatment with SPA-S-843; type: cell-based
[5] = test system: carcino-embryonic antigen (CEA); test: Carcino-embryonic antigen (CEA) in a patient under chemotherapy, CEA-RIA; type: in vivo, human (patient)
Water solubility = type: physicochemical; conditions: as salts, in particular diascorbate

SMILES | dose dependence of toxic effect ([1]; FIG. 1) | IC10 [2] | IC50 [2] | IC90 [2] | total hemolytic conc. (THC) (erythrocytes) [µg/mL] | LD50 [3] [mg/kg] | cytotoxicity on WEHI-3B(D+) cells, compared with amphotericin B ([1]; 7 days, FIG. 1) | IC10 ([1]; vs amphotericin B, FIG. 2) | IC50 ([1]; vs amphotericin B, FIG. 2) | IC90 ([1]; vs amphotericin B, FIG. 2) | potentiation of cisplatin cytotoxicity ([4]; incubation with SPA-S-843 (2 μg/ml)) | effect on resistance of TMC cells to cisplatin ([4]; pre-treatment with SPA-S-843 (2 μg/ml)) | CEA after phase B ([5]; SPA-S-843 50 mg i.v. combined with 5-fluorouracil (500 mg) and folinic acid (250 mg), 3 weeks later) [ng/mL] | sensitivity to usual chemotherapeutic agents in combination with the polyene ([5]; combination with SPA-S-843, one patient) | water solubility (Water solubility) | concentration at which lytic activity on erythrocytes appears (erythrocytes; of the order of) [µg/mL]
C[C@@H]1[C@H](O)[C@@H](C)/C=C/C=C/C=C/C=C/C=C/C=C/C=C/[C@H](O[C@@H]2O[C@H](C)[C@@H](O)[C@H](N)[C@@H]2O)C[C@@H]2O[C@](O)(C[C@@H](O)C[C@@H](O)[C@H](O)CC[C@@H](O)C[C@@H](O)CC(=O)O[C@H]1C)C[C@H](O)[C@H]2C(=O)O [amphotericin B] | dose-related kinetics | significantly higher | significantly higher | significantly higher | 2 | 4.77 | – | – | – | – | – | – | – | – | – | –
CNc1ccc(C(=O)CC(O)CCC(C)C2OC(=O)CC(O)CC(=O)CC(O)CC(O)CC(O)CC(O)CC3(O)CC(O)C(C(=O)NCCN(C)C)C(CC(OC4OC(C)C(O)C(NC(=O)CN(C)C)C4O)C=CC=CC=CC=CC=CC=CC=CC2C)O3)cc1 (stereo not drawn) [SPA-S-843, N-dimethylamino-acetyl-partricin A 2-dimethylaminoethylamide] | dose-related kinetics | – | – | – | – | – | substantially higher; also recorded: more sensitive to SPA-S-843 than to amphotericin B | significantly lower | significantly lower | significantly lower | able to potentiate cisplatin cytotoxicity against resistant cells up to the level of naturally sensitive cells; also recorded: cytotoxic for all TMC cells | substantially counteracted | 65 | re-established the sensitivity | water soluble | ≥ 18
CNc1ccc(C(=O)CC(O)CCC(C)C2OC(=O)CC(O)CC(=O)CC(O)CC(O)CC(O)CC(O)CC3(O)CC(O)C(C(=O)NCCN(C)C)C(CC(OC4OC(C)C(O)C(NC(=O)CN(C)C)C4O)C=CC=CC=CC=CC=CC=CC=CC2C)O3)cc1 (stereo not drawn) [SPA-S-843 free base, N-dimethylamino-acetyl-partricin A 2-dimethylaminoethylamide] | – | – | – | – | > 18 | – | – | – | – | – | – | – | – | – | – | –
